Measured values taken from paper PMC8219695 (Nature Communications, 2021).
Several values for one entry are separate records, joined by “and”; a condition that tells them apart may be missing. Equal entries are not always repeated.

Tests used:
CD1 mice = test: Tail-flick antinociception in CD1 mice; assay type: in vivo, mouse; details: sc; for Tail flick (%MPE), average / Tail flick latency in secs, Av / Tail flick latency in secs, av: average of 8 animals; for Tail flick (%MPE) / Tail flick latency: individual animals
hMOR = target: T1, hMOR (Homo sapiens, UniProt P35372); test: CAMYEL BRET cAMP agonist assay at hMOR; assay type: cell-based; details: hMOR, single replicates, source data Fig 6c
T1 construct: expressed in transfected cells; plasmid a gift from Dr. Nevin Lambert
T1 sequence (P35372 whole entry): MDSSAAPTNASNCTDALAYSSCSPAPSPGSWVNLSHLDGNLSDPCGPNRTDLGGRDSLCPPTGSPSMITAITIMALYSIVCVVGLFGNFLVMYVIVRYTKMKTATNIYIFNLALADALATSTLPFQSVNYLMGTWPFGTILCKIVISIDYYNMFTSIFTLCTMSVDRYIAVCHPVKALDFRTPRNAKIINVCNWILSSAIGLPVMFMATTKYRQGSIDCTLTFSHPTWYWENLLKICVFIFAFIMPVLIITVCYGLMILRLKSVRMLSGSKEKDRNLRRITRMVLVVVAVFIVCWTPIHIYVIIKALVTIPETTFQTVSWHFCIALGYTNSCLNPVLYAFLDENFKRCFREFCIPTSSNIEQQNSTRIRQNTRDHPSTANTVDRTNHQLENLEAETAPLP

mMOR [1] = target: T2, mMOR (Mus musculus, UniProt P42866); test: BRET-based Nb33 recruitment assay at mMOR; assay type: cell-based; details: single replicates, source data Fig 7a
T2 construct: signal peptide (heterologous, not specified) (N); expressed in transfected cells; pcDNA3.1(+) construct made in house
T2 sequence (P42866 whole entry): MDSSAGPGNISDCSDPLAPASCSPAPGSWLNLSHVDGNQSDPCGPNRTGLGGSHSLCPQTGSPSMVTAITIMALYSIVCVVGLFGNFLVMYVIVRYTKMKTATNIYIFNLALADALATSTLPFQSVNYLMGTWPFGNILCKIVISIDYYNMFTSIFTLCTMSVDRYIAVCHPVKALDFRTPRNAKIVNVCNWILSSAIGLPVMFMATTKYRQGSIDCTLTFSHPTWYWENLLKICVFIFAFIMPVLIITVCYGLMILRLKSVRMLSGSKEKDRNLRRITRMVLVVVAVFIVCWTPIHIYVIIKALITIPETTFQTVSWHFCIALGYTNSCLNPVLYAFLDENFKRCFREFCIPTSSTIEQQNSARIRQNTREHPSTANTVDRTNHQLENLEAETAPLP

mMOR [2] = target: T2, mMOR; test: CAMYEL BRET cAMP agonist assay at mMOR; assay type: cell-based; details: mMOR, single replicates, source data Fig 6b
[3] = Log[drug] (M) -13, cAMP inhibition as % of DAMGO

CC[C@@H]1CN2CC[C@@]3(O)C(=Nc4cc(Cl)cc(OC)c43)[C@@H]2C[C@@H]1/C(=C\OC)C(=O)OC [11-Cl-7OH]
%MPE (CD1 mice; 5 mg/kg, 15 min): 2.8 %MPE | Tail flick (%MPE), average (CD1 mice; 5 mg/kg, 15 min): 2.3 %MPE | Tail flick latency in secs, Av (CD1 mice; 5 mg/kg, 15 min): 3.3 s | Tail flick (%MPE) (CD1 mice; 5 mg/kg, 15 min): -5.1 %MPE and -18.5 %MPE and 0.7 %MPE and 1.6 %MPE (2×) and 16.4 %MPE and 17.5 %MPE and 4.0 %MPE | Tail flick latency (CD1 mice; 5 mg/kg, 15 min): 2.75 secs and 2.65 secs and 2.95 secs and 3.7 secs (2×) and 4.4 secs and 3.4 secs and 2.8 secs | %MPE (CD1 mice; 5 mg/kg, 30 min): 1.6 %MPE | Tail flick (%MPE), average (CD1 mice; 5 mg/kg, 30 min): 1.3 %MPE | Tail flick latency in secs, Av (CD1 mice; 5 mg/kg, 30 min): 3.2 s | Tail flick (%MPE) (CD1 mice; 5 mg/kg, 30 min): -2.2 %MPE and -3.2 %MPE and 0.7 %MPE and -10.9 %MPE and 7.5 %MPE and 4.7 %MPE and 10.0 %MPE and 4.0 %MPE | Tail flick latency (CD1 mice; 5 mg/kg, 30 min): 2.95 secs (2×) and 3.6 secs and 2.9 secs and 3.8 secs and 3.9 secs and 2.8 secs (2×) | %MPE (CD1 mice; 5 mg/kg, 60 min): 3.3 %MPE | Tail flick latency in secs, Av (CD1 mice; 5 mg/kg, 60 min): 3.3 s | Tail flick (%MPE) (CD1 mice; 5 mg/kg, 60 min): -2.9 %MPE and -16.1 %MPE and 7.0 %MPE and -1.6 %MPE and 1.5 %MPE and -10.9 %MPE and 21.3 %MPE and 20.0 %MPE | Tail flick latency (CD1 mice; 5 mg/kg, 60 min): 2.9 secs (2×) and 2.8 secs and 3.4 secs (2×) and 3.5 secs and 3.7 secs and 4 secs | %MPE (CD1 mice; 25 mg/kg, 15 min): 2.83 %MPE | Tail flick (%MPE), average (CD1 mice; 25 mg/kg, 15 min): 2.6 %MPE | Tail flick latency in secs, av (CD1 mice; 25 mg/kg, 15 min): 2.9 s | Tail flick (%MPE) (CD1 mice; 25 mg/kg, 15 min): 12.5 %MPE and -0.8 %MPE and 0.7 %MPE and -0.7 %MPE (2×) and 10.4 %MPE and -3.5 %MPE and 2.7 %MPE | Tail flick latency (CD1 mice; 25 mg/kg, 15 min): 3.0 secs (2×) and 3.5 secs and 2.8 secs and 2.6 secs (2×) and 3.1 secs and 2.9 secs | %MPE (CD1 mice; 25 mg/kg, 30 min): 5.91 %MPE | Tail flick (%MPE), average (CD1 mice; 25 mg/kg, 30 min): 5.5 %MPE | Tail flick latency in secs, av (CD1 mice; 25 mg/kg, 30 min): 3.1 s | Tail flick (%MPE) (CD1 mice; 25 mg/kg, 30 min): 12.5 %MPE and -11.5 %MPE and 9.0 %MPE and 3.6 %MPE and 10.1 %MPE and 10.4 %MPE and 3.5 %MPE and 6.8 %MPE | Tail flick latency (CD1 mice; 25 mg/kg, 30 min): 3.0 secs and 2.8 secs and 3.4 secs (2×) and 3.3 secs and 3.1 secs (2×) and 3.2 secs | %MPE (CD1 mice; 25 mg/kg, 60 min): 6.34 %MPE | Tail flick (%MPE), average (CD1 mice; 25 mg/kg, 60 min): 6.0 %MPE | Tail flick latency in secs, av (CD1 mice; 25 mg/kg, 60 min): 3.2 s | Tail flick (%MPE) (CD1 mice; 25 mg/kg, 60 min): 7.5 %MPE and -7.7 %MPE and 10.3 %MPE and 2.1 %MPE and 12.2 %MPE and 22.1 %MPE and 0.7 %MPE (2×) | Tail flick latency (CD1 mice; 25 mg/kg, 60 min): 2.6 secs and 3.0 secs and 3.5 secs (2×) and 3.2 secs and 4.0 secs and 2.9 secs and 2.8 secs | %MPE (CD1 mice; 25 mg/kg, 150 min): 2.66 %MPE | Tail flick (%MPE), average (CD1 mice; 25 mg/kg, 150 min): -0.273 %MPE | Tail flick latency in secs, av (CD1 mice; 25 mg/kg, 150 min): 2.9 s | Tail flick (%MPE) (CD1 mice; 25 mg/kg, 150 min): -10.0 %MPE and 3.1 %MPE and 2.8 %MPE and -5.0 %MPE and 4.7 %MPE and 2.9 %MPE and -0.7 %MPE and 0.0 %MPE | Tail flick latency (CD1 mice; 25 mg/kg, 150 min): 2.3 secs and 3.7 secs and 3.0 secs and 2.6 secs and 2.9 secs (2×) and 3.3 secs and 2.5 secs

C[C@@H](NC(=O)[C@@H](N)Cc1ccc(O)cc1)C(=O)NCC(=O)N(C)[C@@H](Cc1ccccc1)C(=O)NCCO [DAMGO, [D-Ala^2, N-Me-Phe^4, Gly^5-ol]-enkephalin, reference compound]
cAMP % (hMOR; Log[drug] (M) -5): 103.124% and 109.477% and 102.684% and 110.427% and 108.861% and 108.591% and 112.306% and 111.09% | cAMP % (hMOR; Log[drug] (M) -6): 98.2575% and 92.1607% and 109.669% and 106.978% and 96.9047% and 104.556% and 112.319% and 93.9893% and 98.3933% | cAMP % (hMOR; Log[drug] (M) -7): 84.826% and 103.003% and 98.5438% and 92.203% and 94.9009% and 88.7302% and 91.8158% and 88.9226% and 95.649% | cAMP % (hMOR; Log[drug] (M) -8): 90.1183% and 95.617% and 94.9621% and 80.7074% and 80.5991% and 79.7704% and 101.871% | cAMP % (hMOR; Log[drug] (M) -9): 83.2929% and 84.9251% and 85.9398% and 87.1639% and 70.6227% and 86.8862% and 70.8595% | cAMP % (hMOR; Log[drug] (M) -10): 23.9872% and 31.9271% and 31.1042% and 26.2749% and 20.3118% and 16.9632% and 5.794% and 13.2278% and 15.6275% | cAMP % (hMOR; Log[drug] (M) -11): 7.017% and -4.712% and 3.0598% and 13.9517% and -4.528% and 3.447% and 8.388% and -3.773% and -4.615% | cAMP % (hMOR; [3]): 1.163% and -6.717% and 5.554% and 6.145% and -10.7075% and 4.5627% and 2.101% and 2.953% and 0.8452% | Nb33 BRET assay at mMOR, response (mMOR [1]; Log[drug] (M) -4): 116.548 and 99.0991 and 123.097 and 102.778 and 111.876 and 86.5818 and 91.4453 and 105.421 and 94.7199 and 96.8839 and 110.228 and 105.758 and 96.6672 and 105.453 and 97.0797 and 106.37 and 115.431 and 97.3489 and 102.87 and 112.822 and 97.3627 | Nb33 BRET assay at mMOR, response (mMOR [1]; Log[drug] (M) -5): 78.3004 and 105.49 and 93.3001 and 92.3549 and 96.5229 and 94.3135 and 107.346 and 108.338 and 93.8039 and 95.4962 and 95.2898 and 96.1807 and 98.423 and 95.5858 and 88.3338 and 114.596 and 90.0997 and 91.8485 and 91.211 and 101.524 and 97.9528 | Nb33 BRET assay at mMOR, response (mMOR [1]; Log[drug] (M) -8): 25.6157 and -0.9817 and 2.276 and 16.2956 and 7.2069 and 3.257 and 8.405 and 5.376 and 16.5535 and 18.8366 and 6.195 and 12.7572 and 5.664 and 5.763 and 13.2066 and 17.6481 | Nb33 BRET assay at mMOR, response (mMOR [1]; Log[drug] (M) -9): 2.545 and 18.2179 and 1.398 and 13.71 and 1.7362 and 12.589 and -5.813 and 7.089 and -10.8919 and 4.229 and 0.1289 and 0.7333 and 3.575 and -0.9155 and 34.3413 and 6.961 and -1.352 and 3.399 and 3.853 and 3.842 and 2.552 | Nb33 BRET assay at mMOR, response (mMOR [1]; Log[drug] (M) -10): 3.45 and -1.0779 and -15.1434 and 16.2214 and 5.631 and -0.462 and -5.169 and -3.138 and 4.714 and -1.576 and 1.587 and 11.4832 and -0.3739 and -1.213 and -14.9335 and -0.4874 and 0.03891 and 0.4485 and -4.142 and 2.431 and 1.7112 | cAMP % (mMOR [2]; Log[drug] (M) -5): 102.015% and 97.5784% and 104.579% and 96.6295% and 98.3687% and 104.58% and 107.049% and 113.123% and 108.981% | cAMP % (mMOR [2]; Log[drug] (M) -6): 105.759% and 89.6935% and 102.343% and 97.3213% and 106.448% and 102.195% and 98.7916% and 100.678% and 92.5396% | cAMP % (mMOR [2]; Log[drug] (M) -7): 94.7459% and 89.7557% and 84.4404% and 103.092% and 95.8909% and 105.68% and 91.1195% and 91.3937% and 91.5037% | cAMP % (mMOR [2]; Log[drug] (M) -8): 54.4279% and 44.3207% and 58.3553% and 86.2498% and 84.9633% and 88.7212% and 82.7217% and 81.9867% and 95.6687% | cAMP % (mMOR [2]; Log[drug] (M) -9): 14.6461% and 18.37% and 18.8483% and 47.9% and 59.4105% and 56.9807% and 36.8388% and 43.8092% and 46.1925% | cAMP % (mMOR [2]; Log[drug] (M) -10): 1.728% and 0.08907% and -1.817% and 16.1543% and 6.811% and 19.2753% and 3.3167% and 1.639% and 10.5208% | cAMP % (mMOR [2]; Log[drug] (M) -11): 6.094% and 2.441% and 8.528% and 5.436% and 3.7044% and 1.349% and 1.812% and -1.084% and -0.7282% | cAMP % (mMOR [2]; [3]): -0.3434% and 15.5805% and 1.417% and -1.196% and 0.717% and 0.4788% and 1.6944% and 5.324% and 4.584%

CN1CC[C@]23c4c5ccc(O)c4O[C@H]2[C@@H](O)C=C[C@H]3[C@H]1C5 [Morphine, morphine, reference compound]
Tail flick (%MPE) (CD1 mice; Fig 9b, Morphine 10 mg/kg): 32.79 %MPE and 42.86 %MPE and 100.00 %MPE (6×) and 61.73 %MPE and 52.00 %MPE | Tail flick latency (CD1 mice; Fig 9b, Morphine 10 mg/kg): 5.9 and 6 and 10 (6×) and 6.9 and 6.4
